Residues, ends and D or L forms follow the SMILES beside them. No end group written: not given here.
How the values were obtained:
HCTR2 = test: β-arrestin recruitment (Tango), known peptide receptors; assay type: cell-based, human; conditions: endogenous ligand(s) included in peptide library
Text: (§1) Supplement mmc6.xlsx, sheet "Peptide GPCR controls" | column: Confirmed?

GPR161 = biological target: T1, GPR161 (Homo sapiens, UniProt Q8N6U8); test: β-arrestin recruitment (Tango), indicative pairing; assay type: cell-based; conditions: mean, n = 3
T1 construct: host or cells: HTLA cells (HEK293-derived)

GPR1 (PathHunter cells) = GPR1 (PathHunter cells) (UniProt P46091)
[1] = biological target: GPR1 (Tango construct) (human) (UniProt P46091)
NTSR2 = test: β-arrestin recruitment (Tango), known peptide receptors; assay type: cell-based, human; conditions: Neurotensin not cyclized
Text: as §1

NTSR1 = test: as above; assay type: cell-based, human; conditions: Neurotensin not cyclized
Text: Supplement mmc6.xlsx, sheet "Peptide GPCR controls" | column: Confirmed?; Notes

NPS = test: as above; assay type: cell-based, human; conditions: NPS receptor, endogenous ligand(s) included in peptide library
Text: as §1

GPR183 = biological target: T2, GPR183 (Homo sapiens, UniProt P32249); test: β-arrestin recruitment (Tango), indicative pairing; assay type: cell-based; conditions: mean, n = 3
T2 construct: host or cells: HTLA cells (HEK293-derived)

NPY5 = biological target: T3, NPY5 (Homo sapiens, UniProt Q15761); test: β-arrestin recruitment (Tango), known peptide receptors; assay type: cell-based; conditions: NPY5R; Emax and pEC50 n.d.; n = 3
T3 construct: host or cells: HTLA cells (HEK293-derived)
T3 sequence (Q15761 1-445): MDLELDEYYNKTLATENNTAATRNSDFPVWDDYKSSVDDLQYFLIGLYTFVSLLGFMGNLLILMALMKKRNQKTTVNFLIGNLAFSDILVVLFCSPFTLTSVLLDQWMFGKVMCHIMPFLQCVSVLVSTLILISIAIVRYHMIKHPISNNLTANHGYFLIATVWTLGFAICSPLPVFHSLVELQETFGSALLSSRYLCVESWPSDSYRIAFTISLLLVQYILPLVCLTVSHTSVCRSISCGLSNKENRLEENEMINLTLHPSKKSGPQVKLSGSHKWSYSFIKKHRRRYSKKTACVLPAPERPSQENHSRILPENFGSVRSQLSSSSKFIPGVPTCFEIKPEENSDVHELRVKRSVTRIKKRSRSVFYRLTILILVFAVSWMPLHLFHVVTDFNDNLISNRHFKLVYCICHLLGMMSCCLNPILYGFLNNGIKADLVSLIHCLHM

OPRL1 = test: as above; assay type: cell-based, human; conditions: endogenous ligand(s) included in peptide library
Text: as §1

GPR55 = GPR55 (Homo sapiens, UniProt Q9Y2T6)
[2] = system: 120 GPCR targets, including all available orphan receptors and 27 known class A peptide receptors; test: Peptide library screen, β-arrestin recruitment (Tango, fold change, 10 μM); assay type: cell-based, human; conditions: repeat hitters of the peptide library screen; the value names the known receptor(s) confirmed in the β-arrestin recruitment (Tango) screen
Procedure, shortened: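 HTLA cells (HEK293 with tTA-dependent luciferase and β-arrestin2-TEV) transiently transfected with Tango GPCR constructs, then stimulated overnight with 10 μM peptides in 1% dFBS medium. Luciferase luminescence read after 15–20 min Bright-Glo incubation at room temperature.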

BB3 [3] = biological target: T4, BB3 (Homo sapiens, UniProt P32247); test: IP1 accumulation (Gq/11), HTRF; assay type: cell-based; conditions: BB3, mean, SEM and n
T4 construct: hIL-2Ra signal peptide (N); expressed in transfected cells
T4 sequence (P32247 2-399 limits assumed): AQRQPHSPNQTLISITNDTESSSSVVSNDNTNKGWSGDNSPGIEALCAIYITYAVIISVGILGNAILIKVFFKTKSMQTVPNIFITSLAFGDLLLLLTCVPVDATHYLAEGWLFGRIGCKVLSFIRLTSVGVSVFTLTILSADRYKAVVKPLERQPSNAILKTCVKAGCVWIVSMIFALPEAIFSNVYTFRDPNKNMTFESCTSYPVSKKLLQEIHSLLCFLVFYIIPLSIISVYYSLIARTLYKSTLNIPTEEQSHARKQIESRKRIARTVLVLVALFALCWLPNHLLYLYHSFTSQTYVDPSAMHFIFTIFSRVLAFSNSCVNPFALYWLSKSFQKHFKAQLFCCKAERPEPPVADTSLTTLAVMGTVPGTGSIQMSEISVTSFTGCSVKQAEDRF

OPRK1 = biological target: T5, OPRK1 (Homo sapiens, UniProt P41145); test: β-arrestin recruitment (Tango), known peptide receptors; assay type: cell-based; conditions: mean
T5 construct: host or cells: HTLA cells (HEK293-derived)

BB3 [4] = biological target: T6, BB3 (Homo sapiens, UniProt P32247); test: β-arrestin recruitment (Tango), validation; assay type: cell-based
T6 construct: host or cells: HTLA cells (HEK293-derived)
T6 sequence (P32247 1-399): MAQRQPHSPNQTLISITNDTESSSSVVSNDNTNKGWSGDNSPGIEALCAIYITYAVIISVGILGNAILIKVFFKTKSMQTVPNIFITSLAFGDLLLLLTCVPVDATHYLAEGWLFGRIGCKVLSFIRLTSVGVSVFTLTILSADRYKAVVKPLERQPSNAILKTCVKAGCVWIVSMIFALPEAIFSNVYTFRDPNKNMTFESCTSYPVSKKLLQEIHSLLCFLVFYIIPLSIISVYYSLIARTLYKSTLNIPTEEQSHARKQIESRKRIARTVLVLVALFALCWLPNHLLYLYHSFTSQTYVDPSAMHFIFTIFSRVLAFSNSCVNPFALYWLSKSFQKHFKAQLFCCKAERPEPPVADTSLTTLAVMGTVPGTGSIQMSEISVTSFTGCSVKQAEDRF
Protocol: The peptide library was additionally screened against 120 GPCR targets in parallel, including all available orphan receptors and 27 known class A peptide receptors using the Tango assay platform ([Kroeze et al., 2015]). Briefly, HTLA cells (a HEK293 cell line stably expressing a tTA-dependent luciferase reporter and a β-arrestin2-TEV fusion gene) were plated 10,000 cells/well in poly-L-lysine–coated clear-bottom white 384-well plates in DMEM supplemented with 10% FBS, 100 U/ml penicillin and 100 μg/ml streptomycin, 2 μg/ml puromycin and 100 μg/ml hygromycin B. 24 hr later, cells were transfected with Tango GPCR constructs using the calcium phosphate method ([Jordan et al., 1996]). The next day, culture medium was changed to DMEM + 1% dFBS and 10 μM peptides were added for overnight stimulation. Bright-Glo solution (Promega) was incubated for 15–20 min at room temperature, and luminescence was counted using a Trilux luminescence counter (Wallac).
For subsequent peptide validation experiments using Tango assays, HTLA cells were transiently transfected in 10 cm dishes with the receptor of interest using polyethylenimine (PEI) ([Longo et al., 2013]). After 24 hr, 25,000 cells/well were plated in clear bottom, white-walled 384-well plates. Assays were performed as described above, with luminescence measured using an EnSpire 2300 Multimode plate reader (PerkinElmer). Luminescence counts were exported into Excel and were analyzed using GraphPad Prism 7.

BB3 [5] = biological target: T4, BB3; test: Real-time receptor internalization (TR-FRET), concentration-response; assay type: cell-based
BB3 [6] = biological target: T4, BB3; test: Dynamic mass redistribution (DMR), concentration-response; assay type: cell-based
GPR17 = biological target: T7, GPR17 (Homo sapiens, UniProt Q13304); test: β-arrestin recruitment (Tango), indicative pairing; assay type: cell-based; conditions: mean, n = 3
T7 construct: host or cells: HTLA cells (HEK293-derived)

MLNR = biological target: T8, MLNR (Homo sapiens, UniProt O43193); test: β-arrestin recruitment (Tango), known peptide receptors; assay type: cell-based; conditions: endogenous ligand(s) included in peptide library
T8 construct: host or cells: HTLA cells (HEK293-derived)
Text: as §1

NOP (OPRL1) = biological target: T9, NOP (OPRL1) (Homo sapiens, UniProt P41146); test: as above; assay type: cell-based; conditions: mean, n = 3
T9 construct: host or cells: HTLA cells (HEK293-derived)
Text: Supplement mmc7.xlsx, sheet "Peptide validation data" | column: Emax; pEC50

GPR15 [7] = test: Repeat of proposed literature pairing; assay type: cell-based, human
Text: Supplement mmc7.xlsx, sheet "Hit summary and classification" | column: Priority orphans

GPR15 [8] = test: Repeat of proposed literature pairing (mass redistribution and/or internalization); assay type: cell-based, human; conditions: target GPR15; reported ligand tested on receptor-expressing cell line
GPR15 [9] = biological target: T10, GPR15 (Homo sapiens, UniProt P49685); test: cAMP inhibition (Gi/o), HTRF with forskolin; assay type: cell-based; conditions: GPR15L cleavage variants versus peptide 64; Figure 5, Table S7
T10 construct: hIL-2Ra signal peptide (N); expressed in transfected cells
T10 sequence (P49685 2-360 limits assumed): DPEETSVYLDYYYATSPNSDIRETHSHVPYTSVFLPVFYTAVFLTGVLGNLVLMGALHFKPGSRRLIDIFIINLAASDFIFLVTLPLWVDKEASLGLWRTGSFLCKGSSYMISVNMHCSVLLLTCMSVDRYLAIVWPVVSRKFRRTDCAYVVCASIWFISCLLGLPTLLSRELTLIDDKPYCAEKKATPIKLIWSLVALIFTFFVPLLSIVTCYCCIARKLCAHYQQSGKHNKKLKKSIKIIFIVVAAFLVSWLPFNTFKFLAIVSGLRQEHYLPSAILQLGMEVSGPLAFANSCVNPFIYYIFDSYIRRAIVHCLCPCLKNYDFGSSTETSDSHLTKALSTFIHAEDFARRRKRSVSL
Protocol: Peptide-dependent second messenger responses were measured using commercially available HTRF-based IP1 and cAMP kits (Cisbio) as described previously ([Nørskov-Lauritsen et al., 2014]). Receptor expression was induced for 48 hr with 0.1 μg/ml doxycycline in 10 cm dishes. For IP1 measurements (to measure Gq/11), 2,500 cells/well were mixed with ligands in triplicate wells in low volume white 384-well plates at 37°C for 30 min. For cAMP assays, 2,500 cells/well were added in triplicate wells in white 384-well plates in the absence or presence of 3 μM forskolin (to measure Gs and Gi/o activation respectively). 100 μM IBMX was included to prevent cAMP degradation during 30 min stimulation on a plate shaker at room temperature. For both assays, HTRF was measured using an EnVision 2104 Multimode plate reader (PerkinElmer).

T9 sequence (P41146 whole entry): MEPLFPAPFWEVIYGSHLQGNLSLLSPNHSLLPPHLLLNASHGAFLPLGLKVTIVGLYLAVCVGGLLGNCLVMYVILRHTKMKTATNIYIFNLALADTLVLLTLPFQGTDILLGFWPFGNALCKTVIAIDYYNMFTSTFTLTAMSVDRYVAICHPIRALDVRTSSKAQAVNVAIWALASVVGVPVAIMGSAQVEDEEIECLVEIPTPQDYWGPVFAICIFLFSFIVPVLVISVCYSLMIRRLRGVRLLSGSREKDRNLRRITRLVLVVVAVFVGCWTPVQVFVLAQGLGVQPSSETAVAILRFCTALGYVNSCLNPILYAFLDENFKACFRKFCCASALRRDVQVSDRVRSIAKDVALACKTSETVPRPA
T7 sequence (Q13304 whole entry): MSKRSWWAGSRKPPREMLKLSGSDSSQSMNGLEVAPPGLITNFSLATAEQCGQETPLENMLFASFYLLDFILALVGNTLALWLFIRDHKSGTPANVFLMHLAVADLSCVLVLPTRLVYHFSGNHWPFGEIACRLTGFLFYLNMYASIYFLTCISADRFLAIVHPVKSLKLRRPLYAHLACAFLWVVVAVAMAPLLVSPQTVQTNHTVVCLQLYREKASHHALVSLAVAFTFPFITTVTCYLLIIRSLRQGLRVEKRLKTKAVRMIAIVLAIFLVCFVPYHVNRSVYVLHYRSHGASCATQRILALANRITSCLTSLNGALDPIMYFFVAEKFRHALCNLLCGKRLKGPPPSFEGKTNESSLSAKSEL
T2 sequence (P32249 whole entry): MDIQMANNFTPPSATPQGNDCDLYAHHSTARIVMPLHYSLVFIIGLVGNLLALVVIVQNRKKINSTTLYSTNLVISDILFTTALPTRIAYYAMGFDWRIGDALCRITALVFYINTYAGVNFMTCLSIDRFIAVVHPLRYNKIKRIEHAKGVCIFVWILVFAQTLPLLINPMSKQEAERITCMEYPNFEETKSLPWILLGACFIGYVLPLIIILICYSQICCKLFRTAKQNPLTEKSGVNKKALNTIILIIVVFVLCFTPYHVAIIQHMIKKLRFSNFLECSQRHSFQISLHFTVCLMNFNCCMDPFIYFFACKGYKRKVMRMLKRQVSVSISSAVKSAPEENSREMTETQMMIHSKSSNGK
T1 sequence (Q8N6U8 whole entry): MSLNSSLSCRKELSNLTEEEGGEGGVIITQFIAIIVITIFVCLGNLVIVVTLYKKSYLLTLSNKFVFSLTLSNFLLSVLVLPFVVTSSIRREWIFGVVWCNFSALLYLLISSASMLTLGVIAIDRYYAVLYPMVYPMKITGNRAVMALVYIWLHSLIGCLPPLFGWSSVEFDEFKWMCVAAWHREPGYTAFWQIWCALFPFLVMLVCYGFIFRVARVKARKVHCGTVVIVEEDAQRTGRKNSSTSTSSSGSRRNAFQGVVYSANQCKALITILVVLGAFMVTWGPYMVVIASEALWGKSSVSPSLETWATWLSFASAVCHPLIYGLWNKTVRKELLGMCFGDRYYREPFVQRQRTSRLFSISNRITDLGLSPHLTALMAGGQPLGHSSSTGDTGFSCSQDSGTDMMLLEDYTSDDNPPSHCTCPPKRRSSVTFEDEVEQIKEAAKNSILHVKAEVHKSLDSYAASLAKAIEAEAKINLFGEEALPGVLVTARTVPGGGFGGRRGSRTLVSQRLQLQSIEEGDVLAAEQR
T5 sequence (P41145 whole entry): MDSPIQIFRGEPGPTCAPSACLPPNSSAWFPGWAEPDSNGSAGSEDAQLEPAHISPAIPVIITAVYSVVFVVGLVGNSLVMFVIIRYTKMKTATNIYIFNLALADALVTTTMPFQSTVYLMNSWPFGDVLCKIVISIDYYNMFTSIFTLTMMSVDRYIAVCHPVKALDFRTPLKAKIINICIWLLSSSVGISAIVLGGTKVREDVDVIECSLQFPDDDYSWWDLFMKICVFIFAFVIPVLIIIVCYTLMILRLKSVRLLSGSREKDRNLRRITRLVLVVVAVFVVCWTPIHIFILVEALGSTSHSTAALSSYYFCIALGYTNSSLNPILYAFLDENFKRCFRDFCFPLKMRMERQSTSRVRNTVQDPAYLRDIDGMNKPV
Chain of GPR55 (Q9Y2T6 whole entry): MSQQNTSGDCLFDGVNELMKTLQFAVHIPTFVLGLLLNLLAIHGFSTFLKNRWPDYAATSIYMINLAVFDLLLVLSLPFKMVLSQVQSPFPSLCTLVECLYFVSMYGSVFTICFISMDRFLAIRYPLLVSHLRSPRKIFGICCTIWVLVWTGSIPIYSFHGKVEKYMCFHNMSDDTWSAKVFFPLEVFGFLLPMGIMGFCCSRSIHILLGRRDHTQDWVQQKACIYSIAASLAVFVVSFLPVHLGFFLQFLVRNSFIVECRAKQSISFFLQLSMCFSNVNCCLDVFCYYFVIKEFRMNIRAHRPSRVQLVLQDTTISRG
T8 sequence (O43193 whole entry): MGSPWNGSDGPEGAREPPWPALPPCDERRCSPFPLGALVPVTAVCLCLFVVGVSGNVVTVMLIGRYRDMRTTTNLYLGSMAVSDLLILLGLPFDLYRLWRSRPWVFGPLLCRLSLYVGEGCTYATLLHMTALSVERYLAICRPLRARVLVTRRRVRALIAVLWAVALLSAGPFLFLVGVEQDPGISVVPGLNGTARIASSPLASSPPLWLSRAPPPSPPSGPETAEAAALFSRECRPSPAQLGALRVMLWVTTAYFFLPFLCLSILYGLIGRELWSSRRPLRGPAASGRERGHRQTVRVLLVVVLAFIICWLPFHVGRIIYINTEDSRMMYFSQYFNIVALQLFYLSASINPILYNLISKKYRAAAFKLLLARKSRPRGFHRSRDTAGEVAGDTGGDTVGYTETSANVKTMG
Chain of GPR1 (Tango construct) (human) (P46091 whole entry): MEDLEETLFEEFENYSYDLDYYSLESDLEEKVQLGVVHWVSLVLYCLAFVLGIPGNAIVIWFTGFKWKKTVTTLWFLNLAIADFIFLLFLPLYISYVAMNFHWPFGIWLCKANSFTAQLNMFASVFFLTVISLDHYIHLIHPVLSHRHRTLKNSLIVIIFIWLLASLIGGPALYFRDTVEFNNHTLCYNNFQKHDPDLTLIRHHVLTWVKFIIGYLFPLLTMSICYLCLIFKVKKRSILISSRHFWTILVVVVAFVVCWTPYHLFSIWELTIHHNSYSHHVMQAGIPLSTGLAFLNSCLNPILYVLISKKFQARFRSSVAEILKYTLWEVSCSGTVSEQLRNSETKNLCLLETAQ
Chain of GPR1 (PathHunter cells) (P46091 whole entry): as above

## Orexin-B
HCTR2
  Confirmed? (confirmation of b-arrestin recruitment): Yes

## NWTPQAMLYLKGAQ [Peptide 95]
GPR161
  Emax, Tango (fold over basal): 1.4 fold over basal
  pEC50, Tango (fold over basal): 6.57

## Peptide 141 (Osteocrin_(-2-19))
GPR1 (PathHunter cells)
  pEC50 in PathHunter β-arrestin recruitment assay: 6.18 pEC50
[1]
  pEC50 in Tango β-arrestin recruitment assay: 5.6 pEC50

## Neurotensin
NTSR2
  Confirmed? (confirmation of b-arrestin recruitment): No
NTSR1; Tango
  Confirmed? (confirmation of b-arrestin recruitment): Yes
NTSR1; validation
  Notes (b-arrestin recruitment response): Neurotensin not cyclized; weak activation in validation

## Neuropeptide S (SFRNGVGTGMKKTSFQRAKS)
NPS
  Confirmed? (confirmation of b-arrestin recruitment): No

## KGGFSFRF [Peptide 31]
GPR183
  Emax, Tango (fold over basal): 1.7 fold over basal
  pEC50, Tango (fold over basal): 8.61
NPY5
  Comment, Tango (fold over basal): Response >1uM; part of QRFP43

## Nociceptin/orphanin FQ
OPRL1
  Confirmed? (confirmation of b-arrestin recruitment): Yes

## PACAP27 (peptide)
GPR55
  pEC50 at GPR55 (internalization or mass redistribution; assay not given): 9.51 pEC50

## CSCC[C@H](NC(=O)[C@H](Cc1ccccc1)NC(=O)CNC(=O)CNC(=O)[C@@H](N)Cc1ccc(O)cc1)C(=O)N[C@@H](CCCNC(=N)N)C(=O)N[C@@H](CCCNC(=N)N)C(=O)N[C@H](C(=O)NCC(=O)N[C@@H](CCCNC(=N)N)C(=O)N1CCC[C@H]1C(=O)N[C@@H](CCC(=O)O)C(=O)N[C@@H](Cc1c[nH]c2ccccc12)C(=O)N[C@@H](Cc1c[nH]c2ccccc12)C(=O)N[C@@H](CCSC)C(=O)N[C@@H](CC(=O)O)C(=O)N[C@@H](Cc1ccc(O)cc1)C(=O)N[C@@H](CCC(N)=O)C(=O)N[C@@H](CCCCN)C(=O)N[C@@H](CCCNC(=N)N)C(=O)N[C@@H](Cc1ccc(O)cc1)C(=O)NCC(=O)NCC(=O)N[C@@H](Cc1ccccc1)C(=O)N[C@@H](CC(C)C)C(=O)O)C(C)C [Peptide 158, Peptide E] (H-YGGFMRRVGRPEWWMDYQKRYGGFL-OH)
[2]
  Confirmation of known target in Tango: kappa, mu
BB3 [3]
  Emax, IP1: 164.0 nM
BB3 [3]; pEC50, IP1 (nM)
  EC50: 6760 nM
OPRK1; n = 3
  Emax, Tango (fold over basal): 5.0 fold over basal
OPRK1; n = 3, read-out: pEC50, Tango (fold over basal) (converted)
  EC50: 1.35 µM
BB3 [4]; BB3, mean, SEM and n, read-out: pEC50, Tango (fold over basal) (converted)
  EC50: 93.3 µM
BB3 [4]; HTLA cells transiently transfected, overnight stimulation, luciferase, mean ± SEM of 3-4 independent experiments in triplicate, read-out: pEC50, β-arrestin recruitment (Tango), BB3 (converted)
  EC50: > 10 µM
BB3 [5]
  Emax, Internalization (AUC): 16.0
BB3 [6]
  EC50: > 10 µM
BB3 [6]; pEC50, DMR (peak), BB3, mean, SEM and n
  EC50: 72.4 µM

## RHVNHSATEALGELRERAPGQGTNGFQLLRHAV [Peptide 192]
GPR17
  Emax, Tango (fold over basal): 1.3 fold over basal
  pEC50, Tango (fold over basal): 9.08

## Motilin
MLNR
  Confirmed? (confirmation of b-arrestin recruitment): Yes

## TLGPQAHSLALQSVDLLFRP [Peptide 132]
NOP (OPRL1)
  Emax, Tango (fold over basal): 8.8 fold over basal
  pEC50, Tango (fold over basal): 4.82

## GPR15L: longest 57-residue cleavage variant of C10orf99 with two intramolecular disulfide bridges (KRRPAKAWSGRRTRLCCHRVPSPNSTNLKGHHVRLCKPCKLEPEPRLWVVPGALPQV; disulfide (positions not given here))
GPR15 [7]
  Peptide pairing for orphan receptor GPR15 (confirmed/unconfirmed): Confirmed peptide pairings for orphans
GPR15 [8]
  Active in DMR/internalization: Yes
GPR15 [9]
  fold improved potency over the 11-amino acid peptide at GPR15: 100 fold

Source: publication PMC6838683, “Discovery of Human Signaling Systems: Pairing Peptides to G Protein-Coupled Receptors” (Cell, 2019)
